Measured values from PMC6158189, “A pharmacological probe identifies cystathionine β-synthase as a new negative regulator for ferroptosis” (Cell Death & Disease, 2018).

Assays:
[1] = system: H22 mouse liver tumor cells in ICR mice; conditions: 20 mg/kg/day i.v.
Protocol: Fig. 7 CH004 suppresses tumor growth in vivo. a–c CH004 reduces the growth rate of tumors in liver tumor xenograft mice model. Mice bearing liver tumor xenografts were treated with CH004 (10 mg/kg/d), cyclophophamide (CTX, 20 mg/kg/d) or PBS (Vehicle) for 21 days. The tumor volumes were measured every two days during day 6 to day 22 and the data was presented in a (n = 8). […] Mice body weight was measured along with the measurement of tumor volume (n = 8). Means ± SDS. Statistical analyses were performed on the raw data by one-way (c) or two-way ANOVA (a) with Bonferroni post-tests. The significance of the CH004-treated group compared to Vehicle was indicated with $ (a), whereas the comparison of the CTX group to Vehicle was with # (a). $, # or ***p < 0.001
The in vivo effect of CH004 on tumor growth was evaluated in a xenograft mice model of liver cancer. The experiment was independently performed by Jiangsu KeyGEN BioTECH Co. LTD (Jiangsu, China) and followed the standard procedures that were established and approved by the local Animal Care and Use Committee. Briefly, H22 mouse liver tumor cells were intraperitoneal injected into female ICR mice (SLAC Laboratory Animal Co. Ltd, Shanghai, China). 8 days later, mice with distended abdomen were killed, and the ascites was collected, washed and resuspended with PBS. 0.1 ml cell suspension with a density of 1 × 10^7/ml was subcutaneously injected into the right dorsum of ICR female mice (~20 g). The mice bearing H22 tumor cells were then randomized into groups (n = 8) on the following day after the implantation. Then, the mice were injected via a tail vein (i.v.) with PBS, CH004 (10 mg/kg) or cyclophosphamide (CTX, a known anticancer drug; 20 mg/kg) once per day and for 21 days. Tumor sizes were measured every 2 days starting from the day 6 using a caliper, and tumor volume was calculated using the formula V = length × width^2 × π / 6. The body weights of mice were recorded under the same conditions. The mice were sacrificed on day 22, and the tumors were taken out and weighted.

[2] = molecular target: T1, hCBS-FL wild type (293T-CBS WT) (Homo sapiens, UniProt P35520); test: H2S in HEK293T cells stably expressing hCBS WT (AzMC probe); type: cell-based; conditions: 8 h
T1 construct: human CBS or hCSE full-length (CBS-FL or CSE) was subcloned into pGEX-KG, pcDNA3 or pCDH vector; expressed in transfected cells
T1 sequence (P35520 1-551): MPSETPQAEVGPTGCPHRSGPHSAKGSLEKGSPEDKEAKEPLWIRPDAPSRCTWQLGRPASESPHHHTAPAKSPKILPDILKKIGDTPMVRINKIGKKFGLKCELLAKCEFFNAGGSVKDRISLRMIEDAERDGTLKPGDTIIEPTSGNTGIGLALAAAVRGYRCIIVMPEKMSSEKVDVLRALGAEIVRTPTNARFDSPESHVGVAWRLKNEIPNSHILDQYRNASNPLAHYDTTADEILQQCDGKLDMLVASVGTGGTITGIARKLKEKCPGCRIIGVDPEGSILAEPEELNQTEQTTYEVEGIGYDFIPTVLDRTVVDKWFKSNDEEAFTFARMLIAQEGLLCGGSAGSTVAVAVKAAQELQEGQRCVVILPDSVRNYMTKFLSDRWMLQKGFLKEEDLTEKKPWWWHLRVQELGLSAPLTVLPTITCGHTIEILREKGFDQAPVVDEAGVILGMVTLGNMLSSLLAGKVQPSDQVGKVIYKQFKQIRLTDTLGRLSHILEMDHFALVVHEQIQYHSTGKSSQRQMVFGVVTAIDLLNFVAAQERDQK
Protocol: HEK293T cells were transiently transfected with empty vector (EV, i and ii), hCBS-FL (iii and iv) or hCSE (v and vi) plasmids, followed by incubation with DMSO (i–iii and v) or 10 μM CH004 (iv and vi) for 8 h before staining with 50 μM AzMC, a H2S-specific probe (“Materials and Methods” section). For larger fluorescent and bright-field images, please see Supplementary Figure 4. The expression levels of hCBS or hCSE in HEK293T cells after transient transfections were determined by western blotting using an anti-CBS antibody (3E1, 1:2000; Abnova) or anti-CSE antibody (1:500, GeneTex). The densities of protein bands for hCBS or hCSE in the blots were quantified with the ImageJ software (National Institutes of Health, Bethesda, MD, USA) and expressed as ratios of respective control (EV group). All immunoblots are representative of at least two independent experiments using GAPDH as the loading control. The fluorescent images of the H2S (blue) were accordingly quantified (“Materials and Methods” section) with ImageJ. […] The DMSO groups of the controls (CTR), which are expressing of hCBS or hCSE, were normalized to 100% and the levels of H2S in CH004-treated or EV group are shown as relative percentages. c, d CH004 dose-dependently suppresses the activity of hCBS WT without affecting the activity of CH004-insensitive mutant. HEK293T cells stably expressing EV (i and ii), hCBS-FL wild type (293T-CBS WT; iii–v) or CBS-FL mutant (293T-CBS Q222A, vi–viii) were treated with DMSO (i–iii and vi), 5 μM CH004 (iv, vii) or 10 μM CH004 (v, viii) for 8 h before staining with the AzMC. For larger fluorescent and bright-field images, please see Supplementary Figures 5–6. […] The DMSO groups of the controls (CTR), which are expressing of hCBS-FL wt or Q222A mutant, were normalized to 100% and the levels of H2S in CH004-treated or EV group are shown as relative percentages. A representative fluorescence image from three independent experiments is shown. Means ± SDS (n = 3). Statistical analyses were performed on the raw data for each group by one-way (b) or two-way (d) ANOVA with Bonferroni post-tests. ***p < 0.001. Bars, 50 μm
H2S levels in living cells were detected using a H2S-specific fluorescent probe according to a protocol described previously[31],[55]. To measure H2S in transiently transfected HEK293T cells, the cells were seeded on poly-D-Lys-coated coverslips (Thermo Scientific, Waltham, MA, USA) in 12-well plates at a density of ~ 1 × 10^5 cells per well, and hCBS or hCSE plasmids were transiently transfected by X-tremeGENE HP DNA Transfection Reagent according to the manufacturer’s protocol (Roche, Basel, Switzerland). […] After incubation with 50 μM AzMC at 37 °C for 30 min, the cells were washed 4 times with PBS, and the fluorescent images were recorded with excitation by 405 nm laser by using a A1Si (Nikon) confocal microscope. The intensity of the blue fluorescent signals, indicating the amount of H2S, was quantified by ImageJ software (NIH, Bethesda, ML). The H2S signal was then corrected for the background signal detected in HEK293T cells transiently or stably expressing of empty vector (HEK293T-EV) and normalized by the corresponding cell-occupying area and compared with the control (DMSO group, 100%). Similarly, the H2S signal in HepG2 cells was quantified by AzMC staining, corrected for the background signal outside the cells, normalized by the cell area and expressed as percentages of DMSO control (100%). […]

[3] = molecular target: T2, endogenous hCBS in HepG2 cells (Homo sapiens, UniProt P35520); test: endogenous H2S in HepG2 cells (AzMC probe); type: cell-based; conditions: 8 h, HepG2
T2 construct: effects of CH004 on the activity of endogenous CBS by incubating with HepG2; endogenous in cells; host or cells: HepG2
T2 sequence (P35520 1-551): T1 sequence (P35520 1-551)
Protocol: Fig. 3 The effect of CH004 on the activity of endogenous hCBS in cells. a CH004 dose-dependently elevates the levels of Hcys in HepG2 and HEK293T cells. HepG2 cells or HEK293T cells were incubated with indicated CH004 or DMSO (control) for 12 h. The amount of total Hcys in cells was measured by ELISA using Axis® Homocysteine EIA kit (IBL, AX51301) (“Materials and Methods” section). […] HepG2 cells were treated with indicated DMSO, CH004 or HA for 8 h before the staining with AzMC probe. The amount of the H2S (blue) was quantified and is shown in (c). Bars, 50 μm. Control (CTR), DMSO group (100%). A representative fluorescence image from three independent experiments is shown. Means ± SDS (n = 3). d CH004 elevates Hcys in the peripheral blood of rats. The total Hcys of the blood samples collected from the anesthetized rats at the 75 min time point (Materials and Methods) were quantified by ELISA (see above). Means ± SDS (n = 6).
H2S levels in living cells were detected using a H2S-specific fluorescent probe according to a protocol described previously[31],[55]. To measure H2S in transiently transfected HEK293T cells, the cells were seeded on poly-D-Lys-coated coverslips (Thermo Scientific, Waltham, MA, USA) in 12-well plates at a density of ~ 1 × 10^5 cells per well, and hCBS or hCSE plasmids were transiently transfected by X-tremeGENE HP DNA Transfection Reagent according to the manufacturer’s protocol (Roche, Basel, Switzerland). After 24 h, the transfected cells were treated with DMSO or inhibitors for another 8 h, followed by staining with 7-azide-4-methylcoumarin (AzMC; Sigma-Aldrich). Similarly, HEK293T cells stably expressing CBS WT, Q222A mutant or EV were seeded on poly-D-Lys-coated coverslips in 12-well plates for one day before treatment with DMSO or inhibitors for 8 h. After incubation with 50 μM AzMC at 37 °C for 30 min, the cells were washed 4 times with PBS, and the fluorescent images were recorded with excitation by 405 nm laser by using a A1Si (Nikon) confocal microscope. The intensity of the blue fluorescent signals, indicating the amount of H2S, was quantified by ImageJ software (NIH, Bethesda, ML). The H2S signal was then corrected for the background signal detected in HEK293T cells transiently or stably expressing of empty vector (HEK293T-EV) and normalized by the corresponding cell-occupying area and compared with the control (DMSO group, 100%). Similarly, the H2S signal in HepG2 cells was quantified by AzMC staining, corrected for the background signal outside the cells, normalized by the cell area and expressed as percentages of DMSO control (100%).
To elucidate the subcellular localization of H2S, HepG2 cells were seeded on poly-D-Lys-coated coverslips in 12-well plates. After treatment with DMSO or inhibitors for 8 h, cells were sequentially incubated with 200 nM Mito-Tracker® Green and 50 μM AzMC for 30 min at 37 °C in PBS, and then fluorescent images were taken using a confocal microscope.
Figure S9. The effect of AOAA on the level of endogenous H2S in HepG2 cells. […] HepG2 cells were incubated with 0 (DMSO control), 1, 5 or 10 mM AOAA for 8 h before staining with 50 μM AzMC. Upper panels, the overlaid images; middle panels, the corresponding fluorescent images (blue, H2S); the lower panels, the bright-field images. Bars: 50 μm. (B) Quantification of the mean fluorescent density of H2S (blue). The intensity of H2S was accordingly quantified and normalized by correcting for the background signal outside cells. Data was expressed as percentages of the control (DMSO group, 100%). Means ± SDs (n=3). One-way ANOVA with Bonferroni post-tests was used for the analysis. *, p< 0.05; ***, p< 0.001; n.s. no significance. The images are one representative from three independent experiments.

SMILES	reduction of tumor volume or weight ([1]; 21-day treatment)	effect on total body weight ([1]; 21 days)	effect on production of H2S ([2]; 1 mM, HEK293T stably expressing hCBS)	decrease in cellular H2S ([2]; 10 mM, HEK293T stably expressing hCBS)	H2S production ([2]; 1, 5 or 10 mM, 293T-CBS WT)	effect on production of H2S ([3]; 1 mM)	decrease in cellular H2S ([3]; 10 mM)	production of endogenous H2S ([3]; 1, 5 or 10 mM)
O=P1(N(CCCl)CCCl)NCCCO1 (centres unmarked) [CTX, cyclophosphamide, reference compound]	more than half	did not substantially affect	–	–	–	–	–	–
NOCC(=O)O [AOAA, aminooxyacetic acid, reference compound]	–	–	cannot suppress	≤ 30%	weakly inhibits	cannot suppress	≤ 30%	impotently decreases
